Results published in US8022091B2, “Triazole derivative” (Taisho Pharmaceutical Co., Ltd., priority 2006, dated 2011).

Tests used:
human Edg-1 (S1P1) = target: T1, human Edg-1 (S1P1) (Homo sapiens, UniProt P21453); experiment: S1P1 binding assay: inhibition of [33P]-S1P binding to membrane fraction of HEK-293 cells transferred with the human Edg-1 (S1P1) gene; details: for inhibition at 10 µM: test compound at 10 μM, inhibition of [33P]-S1P binding to the membrane fraction of HEK-293 cells expressing human Edg-1 (S1P1); for IC50: [33P]-S1P 0.1 nM, human Edg-1 (S1P1) HEK-293 membrane fraction, 1 h at 30° C., read-out: IC50 (concentration at which binding in the absence of the test compound was inhibited by 50%)
T1 construct: expressed in transfected cells; host or cells: HEK-293
T1 sequence (P21453 whole entry): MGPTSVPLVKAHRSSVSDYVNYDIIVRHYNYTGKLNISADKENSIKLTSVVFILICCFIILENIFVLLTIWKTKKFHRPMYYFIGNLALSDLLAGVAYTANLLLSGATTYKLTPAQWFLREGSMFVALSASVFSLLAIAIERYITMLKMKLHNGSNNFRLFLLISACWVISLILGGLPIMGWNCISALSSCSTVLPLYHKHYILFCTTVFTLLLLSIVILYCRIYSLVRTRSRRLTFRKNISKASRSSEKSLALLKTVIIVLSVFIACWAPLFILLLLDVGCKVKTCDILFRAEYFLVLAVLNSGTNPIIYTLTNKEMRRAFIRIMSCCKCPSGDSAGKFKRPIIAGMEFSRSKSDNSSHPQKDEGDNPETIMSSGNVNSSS
Outline: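 Membranes from S1P1-transfected HEK-293 cells incubated 1 h at 30° C in pH 7.4 Tris buffer with fatty acid-free BSA, 0.1 nM [33P]-S1P and test compound (0.1% DMSO). Filter-bound radioactivity was counted; inhibition corrected for binding to untransfected-cell membranes, and IC50 derived from concentration series.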

Row | SMILES | inhibition at 10 µM (human Edg-1 (S1P1)) | melting point | IC50 (human Edg-1 (S1P1))
1 | Cc1ccc(Oc2nnc([C@@H](C)NS(=O)(=O)c3ccc(Cl)c(Cl)c3)n2C)cc1 [Compound 58] | 99.7% | 181 to 183 °C | –
2 | CCCn1c(Oc2ccc(C)cc2)nnc1[C@@H](C)NS(=O)(=O)c1ccc(Cl)c(Cl)c1 [Compound 59] | 94.3% | 169.5 to 170.5 °C | –
3 | Cc1ccc(Oc2nnc([C@@H](C)NS(=O)(=O)c3ccc(Cl)c(Cl)c3)n2C(C)C)cc1 [Compound 60] | 98.9% | 192.5 to 195 °C | –
4 | CCn1c(Oc2ccc(C)cc2)nnc1[C@H](C)NS(=O)(=O)c1ccc(Cl)c(Cl)c1 [Compound 62] | 83.5% | 186 to 188.5 °C | –
5 | CCn1c(Oc2ccc3[nH]ccc3c2)nnc1[C@@H](C)NS(=O)(=O)c1ccc(Cl)c(Cl)c1 [Compound 63] | 105% | 216.5 to 217.5 °C | –
6 | CCn1c(Oc2ccc3cc[nH]c3c2)nnc1[C@@H](C)NS(=O)(=O)c1ccc(Cl)c(Cl)c1 [Compound 64] | 101% | 223 to 224 °C | ≤ 35 nM
7 | CCn1c(Oc2ccc3[nH]c(C)cc3c2)nnc1[C@@H](C)NS(=O)(=O)c1ccc(Cl)c(Cl)c1 [Compound 65] | 105% | 201 to 202 °C | –
8 | CCn1c(Oc2cc(C)ccn2)nnc1[C@@H](C)NS(=O)(=O)c1ccc(Cl)c(Cl)c1 [Compound 66] | 93.4% | 183 to 190 °C | –
9 | CCn1c(Oc2ccc(C)cn2)nnc1[C@@H](C)NS(=O)(=O)c1ccc(Cl)c(Cl)c1 [Compound 67] | 95.5% | 182 to 188 °C | –
10 | CCn1c(Oc2ccc3c(c2)CCC(=O)N3)nnc1[C@@H](C)NS(=O)(=O)c1ccc(Cl)c(Cl)c1 [Compound 68] | 101% | 212 to 223 °C | –
11 | CCn1c(Oc2cccc(OC)c2)nnc1[C@@H](C)NS(=O)(=O)c1ccc(Cl)c(Cl)c1 [Compound 69] | 103% | 119 to 120.5 °C | ≤ 35 nM
12 | CCN(CC)c1cccc(Oc2nnc([C@@H](C)NS(=O)(=O)c3ccc(Cl)c(Cl)c3)n2CC)c1 [Compound 70] | 96.5% | 144 to 146 °C | ≤ 10 nM
13 | CCn1c(Oc2cccc(C)n2)nnc1[C@@H](C)NS(=O)(=O)c1ccc(Cl)c(Cl)c1 [Compound 71] | 99.3% | 126 to 135 °C | –
14 | CCn1c(Oc2ccc3cccnc3c2)nnc1[C@@H](C)NS(=O)(=O)c1ccc(Cl)c(Cl)c1 [Compound 72] | 99% | 198 to 200.5 °C | –
15 | CCn1c(Oc2cccc(N3CCCCC3)c2)nnc1[C@@H](C)NS(=O)(=O)c1ccc(Cl)c(Cl)c1 [Compound 73] | 103% | 185 to 187 °C | 2.2 nM
16 | CCn1c(Oc2ccc3c(c2)NC(=O)CC3)nnc1[C@@H](C)NS(=O)(=O)c1ccc(Cl)c(Cl)c1 [Compound 74] | 105% | 218.5 to 227 °C | 15 nM
17 | CCn1c(Oc2cccc(N3CCC3)c2)nnc1[C@@H](C)NS(=O)(=O)c1ccc(Cl)c(Cl)c1 [Compound 75] | 95% | 177 to 179 °C | ≤ 10 nM
18 | CCn1c(Oc2cccc(N3C[C@@H](C)O[C@@H](C)C3)c2)nnc1[C@@H](C)NS(=O)(=O)c1ccc(Cl)c(Cl)c1 [Compound 76] | 99.2% | 151.5 to 153.5 °C | ≤ 35 nM
19 | CCn1c(Oc2cc(C(F)(F)F)n(C)n2)nnc1[C@@H](C)NS(=O)(=O)c1ccc(Cl)c(Cl)c1 [Compound 77] | 99.7% | 123 to 127 °C | –
20 | CCn1c(Oc2ccc3ncccc3c2)nnc1[C@@H](C)NS(=O)(=O)c1ccc(Cl)c(Cl)c1 [Compound 78] | 90.7% | 178 to 179 °C | –
21 | CCn1c(Oc2cccc(N3CCCC3)c2)nnc1[C@@H](C)NS(=O)(=O)c1ccc(Cl)c(Cl)c1 [Compound 79] | 104% | 190 to 195 °C | –
22 | CCn1c(Oc2cc(C)nc(C)c2)nnc1[C@@H](C)NS(=O)(=O)c1ccc(Cl)c(Cl)c1 [Compound 80] | 87.6% | 164 to 165 °C | –
23 | CCn1c(Oc2ccc3c(c2)N=S=N3)nnc1[C@@H](C)NS(=O)(=O)c1ccc(Cl)c(Cl)c1 [Compound 81] | 93.2% | 160 to 165 °C | –
24 | CCn1c(Oc2cccc(N)c2)nnc1[C@@H](C)NS(=O)(=O)c1ccc(Cl)c(Cl)c1 [Compound 82, N-[(R)-1-[5-(3-Amino-phenoxy)-4-ethyl-4H-[1,2,4]triazol-3-yl]-ethyl]-3,4-dichlorobenzenesulfonamide] | 101% | 142 to 145 °C | –
25 | CCn1c(Oc2cccc(N3CCN(CCN(C)C)CC3)c2)nnc1[C@@H](C)NS(=O)(=O)c1ccc(Cl)c(Cl)c1 [Compound 83] | 101% | 170 to 173 °C | 8.1 nM
26 | CCn1c(Oc2cccc(NC(C)=O)c2)nnc1[C@@H](C)NS(=O)(=O)c1ccc(Cl)c(Cl)c1 [Compound 84] | 100% | 160 to 165 °C | –
27 | CCn1c(Oc2cccc(-n3ccnc3)c2)nnc1[C@@H](C)NS(=O)(=O)c1ccc(Cl)c(Cl)c1 [Compound 85] | 100% | 133 to 134 °C | –
28 | CCn1c(Oc2cccc(-n3cccc3)c2)nnc1[C@@H](C)NS(=O)(=O)c1ccc(Cl)c(Cl)c1 [Compound 86, 3,4-Dichloro-N-[(R)-1-[4-ethyl-5-(3-pyrrol-1-phenoxy)-4H-[1,2,4]triazol-3-yl]-ethyl]-benzenesulfonamide] | 107% | 176 to 177 °C | –
29 | CCn1c(Oc2cccc(-n3cnnc3)c2)nnc1[C@@H](C)NS(=O)(=O)c1ccc(Cl)c(Cl)c1 [Compound 89] | 90.3% | 101 to 103 °C | –
30 | CCn1c(Oc2cccc(NC=O)c2)nnc1[C@@H](C)NS(=O)(=O)c1ccc(Cl)c(Cl)c1 [Compound 90, 3,4-Dichloro-N-[(R)-1-[4-ethyl-5-(3-formylamino-phenoxy)-4H-[1,2,4]triazol-3-yl]-ethyl]-benzenesulfonamide] | 99% | 168 to 170 °C | –

The remaining lines, values ahead:

Row | inhibition at 10 µM (human Edg-1 (S1P1)) | melting point | IC50 (human Edg-1 (S1P1)) | SMILES
31 | 90.6% | 137 to 138 °C | – | CCn1c(Oc2cccc(NC(N)=O)c2)nnc1[C@@H](C)NS(=O)(=O)c1ccc(Cl)c(Cl)c1 [Compound 91, 3,4-Dichloro-N-[(R)-1-[4-ethyl-5-(3-ureido-phenoxy)-4H-[1,2,4]triazol-3-yl]-ethyl]-benzenesulfonamide]
32 | 92.1% | 118 to 120 °C | – | CCNC(=O)Nc1cccc(Oc2nnc([C@@H](C)NS(=O)(=O)c3ccc(Cl)c(Cl)c3)n2CC)c1 [Compound 92, 3,4-Dichloro-N-((R)-1-[4-ethyl-5-[3-(3-ethylureido)-phenoxy]-4H-[1,2,4]triazol-3-yl]-ethyl)-benzenesulfonamide]
33 | 99.9% | 167.5 to 169.5 °C | ≤ 10 nM | CCn1c(Oc2cccc(N3CCC(O)CC3)c2)nnc1[C@@H](C)NS(=O)(=O)c1ccc(Cl)c(Cl)c1 [Compound 93, 3,4-Dichloro-N-((R)-1-[4-ethyl-5-[3-(4-hydroxy-piperidin-1-yl)-phenoxy]-4H-[1,2,4]triazol-3-yl]-ethyl)-benzenesulfonamide]
34 | 106% | 190 to 192 °C | ≤ 10 nM | CCn1c(Oc2cccc(N3CCN(C(C)C)CC3)c2)nnc1[C@@H](C)NS(=O)(=O)c1ccc(Cl)c(Cl)c1 [Compound 94]
35 | 92.4% | 205 to 208.5 °C | – | CCn1c(Oc2cc(C)cc(C)n2)nnc1[C@@H](C)NS(=O)(=O)c1ccc(Cl)c(Cl)c1 [Compound 95]
36 | 78.7% | 191 to 194 °C | – | CCn1c(Oc2cc3nc(C)cc(C)n3n2)nnc1[C@@H](C)NS(=O)(=O)c1ccc(Cl)c(Cl)c1 [Compound 96]
37 | 93% | 158 to 159 °C | – | CCn1c(Oc2cccc(NC(=O)N(C)C)c2)nnc1[C@@H](C)NS(=O)(=O)c1ccc(Cl)c(Cl)c1 [Compound 97, 3,4-Dichloro-N-((R)-1-[5-[3-(3,3-dimethylureido)-phenoxy]-4-ethyl-4H-[1,2,4]triazol-3-yl]-ethyl)-benzenesulfonamide]
38 | 100% | 143 to 144 °C | – | CCn1c(Oc2cccc(NC(=O)N3CCOCC3)c2)nnc1[C@@H](C)NS(=O)(=O)c1ccc(Cl)c(Cl)c1 [Compound 98]
39 | 102% | 103 to 105.5 °C | 25 nM | CCn1c(Oc2cc(C(C)C)n(C)n2)nnc1[C@@H](C)NS(=O)(=O)c1ccc(Cl)c(Cl)c1 [Compound 99]
40 | 101% | 142 to 143 °C | ≤ 35 nM | CCn1c(Oc2cccc(NS(=O)(=O)N(C)C)c2)nnc1[C@@H](C)NS(=O)(=O)c1ccc(Cl)c(Cl)c1 [Compound 101]
41 | 104% | 117 to 118 °C | ≤ 35 nM | CCn1c(Oc2cccc(NS(C)(=O)=O)c2)nnc1[C@@H](C)NS(=O)(=O)c1ccc(Cl)c(Cl)c1 [Compound 102, 3,4-Dichloro-N-[(R)-1-[4-ethyl-5-(3-methanesulfonylamino-phenoxy)-4H-[1,2,4]triazol-3-yl]-ethyl]-benzenesulfonamide]
42 | 91.2% | 146.5 to 147.5 °C | – | CCn1c(Oc2ccc(F)cc2)nnc1[C@@H](C)NS(=O)(=O)c1ccc(F)c(Cl)c1 [Compound 103]
43 | 95.2% | 187 to 187.5 °C | – | CCn1c(Oc2ccc(F)cc2)nnc1[C@@H](C)NS(=O)(=O)c1ccc(Br)c(Br)c1 [Compound 104]
